“And” between values parts separate entries of the source, which are not always exact repeats. Identical values can stand only once. Inconclusive results and toxic doses are left out.
Test system: L1210 leukemia ip in BDF1 mice, survival T/C
Test: NCI In Vivo Anticancer Drug Screen. Data for tumor model L1210 Leukemia (intraperitoneal) in B6D2F1 (BDF1) mice
Conditions: higher = longer survival
Summary of the method: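 Read-out is survival time, reported as the treated-group measurement over the vehicle-control measurement.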

[1] = endpoint: mean survival time, dose: 100.0 mg/kg/injection, schedule: Q01DX001 (ip), vehicle: saline with Tween-80
[2] = endpoint: mean survival time, dose: 200.0 mg/kg/injection, schedule: Q01DX001 (ip), vehicle: saline with Tween-80
[3] = endpoint: mean survival time, dose: 400.0 mg/kg/injection, schedule: Q01DX001 (ip), vehicle: saline with Tween-80
[4] = endpoint: mean survival time, dose: 100.0 mg/kg/injection, schedule: Q01DX001 (ip), vehicle: carboxymethylcellulose (CMC)
[5] = endpoint: mean survival time, dose: 200.0 mg/kg/injection, schedule: Q01DX001 (ip), vehicle: carboxymethylcellulose (CMC)
[6] = endpoint: mean survival time, dose: 400.0 mg/kg/injection, schedule: Q01DX001 (ip), vehicle: carboxymethylcellulose (CMC)
[7] = endpoint: mean survival time, dose: 100.0 mg/kg/injection, schedule: Q01DX009 (ip), vehicle: saline with Tween-80
[8] = endpoint: mean survival time, dose: 100.0 mg/kg/injection, schedule: Q04DX003 (ip), vehicle: saline with Tween-80
[9] = endpoint: mean survival time, dose: 200.0 mg/kg/injection, schedule: Q04DX003 (ip), vehicle: saline with Tween-80
[10] = endpoint: mean survival time, dose: 100.0 mg/kg/injection, schedule: Q01DX001 (ip), vehicle: saline
[11] = endpoint: mean survival time, dose: 200.0 mg/kg/injection, schedule: Q01DX001 (ip), vehicle: saline
[12] = endpoint: mean survival time, dose: 400.0 mg/kg/injection, schedule: Q01DX001 (ip), vehicle: saline

## CCCCn1c(C)nc2c(NN=C(N)N)c3ccccc3c(N=NC(=N)N)c21
endpoint: mean survival time, dose: 7.5 mg/kg/injection, schedule: Q01DX Z (oral), vehicle: carboxymethylcellulose (CMC)
  T/C: 102 % of control
endpoint: mean survival time, dose: 15.0 mg/kg/injection, schedule: Q01DX Z (ip), vehicle: carboxymethylcellulose (CMC)
  T/C: 95 % of control
endpoint: mean survival time, dose: 15.0 mg/kg/injection, schedule: Q01DX Z (oral), vehicle: carboxymethylcellulose (CMC)
  T/C: 104 % of control
endpoint: mean survival time, dose: 30.0 mg/kg/injection, schedule: Q01DX Z (oral), vehicle: carboxymethylcellulose (CMC)
  T/C: 98 % of control
endpoint: mean survival time, dose: 60.0 mg/kg/injection, schedule: Q01DX Z (oral), vehicle: carboxymethylcellulose (CMC)
  T/C: 98 % of control

## O=C1c2ccccc2C(=O)N1Cc1nc(=S)[nH][nH]1
[1]
  T/C: 100 % of control
[2]
  T/C: 97 % of control
[3]
  T/C: 97 % of control

## CCc1cc2c(cc1C(=O)CCN1CCCC1)C(C)(C)CCC2(C)C
endpoint: mean survival time, dose: 25.0 mg/kg/injection, schedule: Q04DX002 (ip), vehicle: saline with Tween-80
  T/C: 90 % of control
endpoint: mean survival time, dose: 50.0 mg/kg/injection, schedule: Q04DX002 (ip), vehicle: saline with Tween-80
  T/C: 90 % of control
endpoint: mean survival time, dose: 100.0 mg/kg/injection, schedule: Q04DX002 (ip), vehicle: saline with Tween-80
  T/C: 90 % of control

## O=C(N/N=C/c1ccccc1)C(Oc1ccccc1)c1ccccc1 (centres undefined)
[4]
  T/C: 94 % of control
[5]
  T/C: 94 % of control
[6]
  T/C: 100 % of control

## CC1(c2ccc(Cl)s2)C(=O)N(Cl)C(=O)N1Cl (centres undefined)
endpoint: mean survival time, dose: 12.5 mg/kg/injection, schedule: Q01DX009 (ip), vehicle: saline with Tween-80
  T/C: 95 % of control
endpoint: mean survival time, dose: 25.0 mg/kg/injection, schedule: Q01DX009 (ip), vehicle: saline with Tween-80
  T/C: 100 % of control
endpoint: mean survival time, dose: 50.0 mg/kg/injection, schedule: Q01DX009 (ip), vehicle: saline with Tween-80
  T/C: 94 % of control and 89 % of control
[7]
  T/C: 93 % of control
[8]
  T/C: 96 % of control
[9]
  T/C: 98 % of control

## CCC1([N+](=O)[O-])COP(=O)(NCc2cccnc2)OC1 (centres undefined)
[4]
  T/C: 92 % of control
[5]
  T/C: 101 % of control
[6]
  T/C: 116 % of control

## CCOC(=O)/C=C(/CC(=O)OCC)OCC
endpoint: mean survival time, dose: 50.0 mg/kg/injection, schedule: Q01DX005 (ip), vehicle: saline
  T/C: 104 % of control
endpoint: mean survival time, dose: 100.0 mg/kg/injection, schedule: Q01DX005 (ip), vehicle: saline
  T/C: 94 % of control
endpoint: mean survival time, dose: 200.0 mg/kg/injection, schedule: Q01DX005 (ip), vehicle: saline
  T/C: 96 % of control
endpoint: mean survival time, dose: 400.0 mg/kg/injection, schedule: Q01DX005 (ip), vehicle: saline
  T/C: 100 % of control

## CCCCCCCCS(=O)(O)=S.[Fe]
endpoint: mean survival time, dose: 75.0 mg/kg/injection, schedule: Q01DX001 (ip), vehicle: saline
  T/C: 93 % of control
endpoint: mean survival time, dose: 150.0 mg/kg/injection, schedule: Q01DX001 (ip), vehicle: saline
  T/C: 91 % of control
endpoint: mean survival time, dose: 300.0 mg/kg/injection, schedule: Q01DX001 (ip), vehicle: saline
  T/C: 91 % of control

## Cc1ccc(S(=O)(=O)N/N=C/c2c(O)ccc3ccccc23)cc1
[7]
  T/C: 87 % of control
[8]
  T/C: 96 % of control
endpoint: mean survival time, dose: 200.0 mg/kg/injection, schedule: Q01DX009 (ip), vehicle: saline with Tween-80
  T/C: 89 % of control
[9]
  T/C: 94 % of control
endpoint: mean survival time, dose: 400.0 mg/kg/injection, schedule: Q01DX009 (ip), vehicle: saline with Tween-80
  T/C: 91 % of control
endpoint: mean survival time, dose: 400.0 mg/kg/injection, schedule: Q04DX003 (ip), vehicle: saline with Tween-80
  T/C: 94 % of control

## CCCN(CCC)CCCCCCO
[8]
  T/C: 94 % of control
[9]
  T/C: 96 % of control

## CC1(C)N=C(N)N=C(N)N1c1ccc(OCCNS(=O)(=O)c2cccc(S(=O)(=O)F)c2)c(Cl)c1
endpoint: median survival time, dose: 100.0 mg/kg/injection, schedule: Q01DX001 (ip), vehicle: Klucel (hydroxypropylcellulose) (HPC)
  T/C: 105 % of control
endpoint: median survival time, dose: 200.0 mg/kg/injection, schedule: Q01DX001 (ip), vehicle: Klucel (hydroxypropylcellulose) (HPC)
  T/C: 100 % of control
endpoint: median survival time, dose: 400.0 mg/kg/injection, schedule: Q01DX001 (ip), vehicle: Klucel (hydroxypropylcellulose) (HPC)
  T/C: 105 % of control

## CCCCC(=O)N/N=C/c1ccc(OCC)c(OCC)c1
[10]
  T/C: 102 % of control
[11]
  T/C: 98 % of control
[12]
  T/C: 102 % of control

## COc1ccc(-c2cc(-c3ccccc3)c3ccccc3n2)c(OC)c1OC
endpoint: mean survival time, dose: 100.0 mg/kg/injection, schedule: Q01DX009 (ip), vehicle: Klucel (hydroxypropylcellulose) (HPC)
  T/C: 100 % of control
endpoint: mean survival time, dose: 200.0 mg/kg/injection, schedule: Q01DX009 (ip), vehicle: Klucel (hydroxypropylcellulose) (HPC)
  T/C: 90 % of control
endpoint: mean survival time, dose: 400.0 mg/kg/injection, schedule: Q01DX009 (ip), vehicle: Klucel (hydroxypropylcellulose) (HPC)
  T/C: 90 % of control

## O=C1CC(=O)N2C=CC=CC2=N1
endpoint: mean survival time, dose: 100.0 mg/kg/injection, schedule: Q01DX009 (ip), vehicle: saline
  T/C: 101 % of control
endpoint: mean survival time, dose: 200.0 mg/kg/injection, schedule: Q01DX009 (ip), vehicle: saline
  T/C: 95 % of control
endpoint: mean survival time, dose: 400.0 mg/kg/injection, schedule: Q01DX009 (ip), vehicle: saline
  T/C: 92 % of control

## COc1ccccc1OC(=O)Nc1ccc(S(=O)(=O)N(C)C)cc1
[10]
  T/C: 97 % of control
endpoint: mean survival time, dose: 100.0 mg/kg/injection, schedule: Q04DX003 (ip), vehicle: saline
  T/C: 97 % of control
[11]
  T/C: 100 % of control
endpoint: mean survival time, dose: 200.0 mg/kg/injection, schedule: Q04DX003 (ip), vehicle: saline
  T/C: 95 % of control
[12]
  T/C: 91 % of control
endpoint: mean survival time, dose: 400.0 mg/kg/injection, schedule: Q04DX003 (ip), vehicle: saline
  T/C: 97 % of control

## N#Cc1cccc2c(/C=N\NC(N)=S)nccc12
endpoint: mean survival time, dose: 100.0 mg/kg/injection, schedule: Q04DX002 (ip), vehicle: Klucel (hydroxypropylcellulose) (HPC)
  T/C: 106 % of control
endpoint: mean survival time, dose: 200.0 mg/kg/injection, schedule: Q04DX002 (ip), vehicle: Klucel (hydroxypropylcellulose) (HPC)
  T/C: 95 % of control
endpoint: mean survival time, dose: 400.0 mg/kg/injection, schedule: Q04DX002 (ip), vehicle: Klucel (hydroxypropylcellulose) (HPC)
  T/C: 87 % of control

## NC(Cc1ccc(OC2CCCC2)c(N(CCCl)CCCl)c1)C(=O)O (centres undefined)
endpoint: mean survival time, dose: 0.6 mg/kg/injection, schedule: Q01DX009 (ip), vehicle: carboxymethylcellulose (CMC)
  T/C: 122 % of control
endpoint: mean survival time, dose: 3.8 mg/kg/injection, schedule: Q01DX009 (ip), vehicle: saline
  T/C: 102 % of control
endpoint: mean survival time, dose: 4.4 mg/kg/injection, schedule: Q01DX001 (ip), vehicle: carboxymethylcellulose (CMC)
  T/C: 107 % of control
endpoint: mean survival time, dose: 5.7 mg/kg/injection, schedule: Q01DX009 (ip), vehicle: saline
  T/C: 103 % of control
endpoint: mean survival time, dose: 6.6 mg/kg/injection, schedule: Q01DX001 (ip), vehicle: carboxymethylcellulose (CMC)
  T/C: 111 % of control
endpoint: mean survival time, dose: 8.5 mg/kg/injection, schedule: Q01DX001 (ip), vehicle: carboxymethylcellulose (CMC)
  T/C: 111 % of control
endpoint: mean survival time, dose: 8.5 mg/kg/injection, schedule: Q01DX009 (ip), vehicle: carboxymethylcellulose (CMC)
  T/C: 155 % of control
endpoint: mean survival time, dose: 8.5 mg/kg/injection, schedule: Q01DX009 (ip), vehicle: saline
  T/C: 110 % of control
endpoint: mean survival time, dose: 8.8 mg/kg/injection, schedule: Q01DX009 (ip), vehicle: carboxymethylcellulose (CMC)
  T/C: 115 % of control
endpoint: mean survival time, dose: 10.0 mg/kg/injection, schedule: Q01DX001 (ip), vehicle: carboxymethylcellulose (CMC)
  T/C: 120 % of control
endpoint: mean survival time, dose: 13.0 mg/kg/injection, schedule: Q01DX001 (ip), vehicle: carboxymethylcellulose (CMC)
  T/C: 114 % of control
endpoint: mean survival time, dose: 13.0 mg/kg/injection, schedule: Q01DX009 (ip), vehicle: carboxymethylcellulose (CMC)
  T/C: 152 % of control
endpoint: mean survival time, dose: 13.3 mg/kg/injection, schedule: Q01DX009 (ip), vehicle: carboxymethylcellulose (CMC)
  T/C: 88 % of control
endpoint: mean survival time, dose: 20.0 mg/kg/injection, schedule: Q01DX009 (ip), vehicle: carboxymethylcellulose (CMC)
  T/C: 215 % of control
endpoint: mean survival time, dose: 20.0 mg/kg/injection, schedule: Q01DX009 (ip), vehicle: saline
  T/C: 119 % of control
endpoint: mean survival time, dose: 30.0 mg/kg/injection, schedule: Q01DX001 (ip), vehicle: carboxymethylcellulose (CMC)
  T/C: 202 % of control
endpoint: mean survival time, dose: 30.0 mg/kg/injection, schedule: Q01DX009 (ip), vehicle: saline
  T/C: 98 % of control

## Nc1ncnc(N)c1NC(=O)c1cccc(-c2ccccc2)c1
[1]
  T/C: 97 % of control
[2]
  T/C: 101 % of control
[3]
  T/C: 90 % of control
